Test results from US9815777B2, “Metformin salts to treat Type2 diabetes” (Jiva Pharma, Inc., priority 2013, dated 2017).
“Also recorded” adds a separate entry of the source. Structures can show the parent of a compound that is named as a salt.

Columns and labels:
[1] = system: Female db/db B6BKS (D) Leprdb/J mice; assay: Fasting blood glucose in db/db mouse model of diabetes, daily oral gavage; assay type: in vivo; settings: for Fasting Blood Glucose (% changes from vehicle control): 6 h fast; for Blood glucose lowering compared with the equivalent dose of metformin (in words): difference not statistically significant
From the text: (§1) The anti-diabetic activity of Met.TZ was examined in a standard mouse model of diabetes, in comparison to the front-line anti-diabetes drug metformin hydrochloride. Female db/db B6BKS (D) Leprdb/J mice of approximately 6.5 to 9.5 weeks old were used for this study. This is a standard genetic model of obesity related insulin resistance and diabetes, and has served as model animal for the development and analysis of many metabolically active drugs.
(§2) Two treatment groups of six female mice were administered Met.TZ (MetX), at dose levels of 44.7 mg/kg/dose or 149 mg/kg/dose. Two treatment groups of six female mice were administered the test sample TZ (X), at dose levels of 21.2 mg/kg/dose or 70.8 mg/kg/dose Two treatment groups of six female mice were administered the positive control article, metformin hydrochloride, at dose levels of 30 mg/kg/dose or 100 mg/kg/dose. One additional group of six mice served as the control and received the test article vehicle, water. All drugs and vehicle solutions were administered daily during the study via oral gavage at a dose volume of 5 mL/kg. Body weights were measured three times per week, at the time of glucose measurements.
(§3) Blood samples for glucose analysis were collected three times per week beginning on Day 1 through Day 26. Animals were fasted for 6 hours prior to glucose testing. On Days 1 through 12, the test article, positive control, and vehicle were administered after completion of the glucose testing. On Days 15 through 24 the dosing occurred approximately 90 minutes prior to glucose testing. On Day 26, a glucose tolerance test (GTT) was performed. The animals were administered a glucose solution at a dose level of 2 g/kg and a dose volume of 5 mL/kg. Blood collection for glucose measurements were collected predose, and at 0.5, 1, 1.5, 2, and 3 hours following administration of the glucose solution.

[2] = system: Female db/db B6BKS (D) Leprdb/J mice; assay: Oral glucose tolerance test (GTT) on day 26 in db/db mice; assay type: in vivo, mouse
From the text: as §1, §2, §3

CN(C)C(=N)NC(=N)N.O=C1CSC(=O)N1 [Met.TZ, Metformin thiazolidine-2,4-dione-3-ide]
Glucose lowering activity (in words) ([1]; 149 mg/kg (equivalent to metformin 100 mg/kg), from day 17 until termination of the study): striking glucose lowering activity | Fasting Blood Glucose (% changes from vehicle control) ([1]; day 15 of treatment, 149 mg/kg/day oral gavage): −13% | Fasting Blood Glucose (% changes from vehicle control) ([1]; day 17 of treatment, 149 mg/kg/day oral gavage): −51% | Fasting Blood Glucose (% changes from vehicle control) ([1]; day 19 of treatment, 149 mg/kg/day oral gavage): −33% | Fasting Blood Glucose (% changes from vehicle control) ([1]; day 22 of treatment, 149 mg/kg/day oral gavage): −52% | Blood glucose lowering compared with the equivalent dose of metformin (in words) ([1]; db/db mice): more effective at lowering blood glucose than the equivalent dose of metformin; also recorded: lower glucose more than the equivalent dose of metformin hydrochloride alone | Blood glucose lowering compared with the equivalent dose of metformin (in words) ([1]; db/db mice, listed as 2,4-thiazolidinedione with metformin as its salt (1:1)): enhanced the glucose lowering effect of metformin | GTT glucose curve versus control animals (Veh), significance ([2]; P<0.05 by ANOVA, means of 6 animals): significantly different than that from control animals | Glucose levels post glucose administration compared with the equivalent dose of metformin (in words) ([2]; every time point, 149 mg/kg/day vs metformin 100 mg/kg/day, difference not statistically significant): lower glucose levels than animals treated with the equivalent dose of metformin | Glucose tolerance (in words) ([2]; glucose 2 g/kg, 149 mg/kg/day): striking improvement in glucose tolerance

CN(C)C(=N)N=C(N)N [Metformin, metformin hydrochloride]
Fasting Blood Glucose (% changes from vehicle control) ([1]; day 15 of treatment, 100 mg/kg/day oral gavage): −9% | Fasting Blood Glucose (% changes from vehicle control) ([1]; day 17 of treatment, 100 mg/kg/day oral gavage): −34% | Fasting Blood Glucose (% changes from vehicle control) ([1]; day 19 of treatment, 100 mg/kg/day oral gavage): −7% | Fasting Blood Glucose (% changes from vehicle control) ([1]; day 22 of treatment, 100 mg/kg/day oral gavage): −43%

O=C1CSC(=O)N1 [TZ, 2,4-thiazolidinedione]
Fasting Blood Glucose (% changes from vehicle control) ([1]; day 15 of treatment, 70.8 mg/kg/day oral gavage): +34% | Fasting Blood Glucose (% changes from vehicle control) ([1]; day 17 of treatment, 70.8 mg/kg/day oral gavage): −22% | Fasting Blood Glucose (% changes from vehicle control) ([1]; day 19 of treatment, 70.8 mg/kg/day oral gavage): +9% | Fasting Blood Glucose (% changes from vehicle control) ([1]; day 22 of treatment, 70.8 mg/kg/day oral gavage): −19% | Hypoglycemic activity without any metformin (in words) ([1]; db/db mice, same model): little effect on glucose lowering
